According to US5958496A, “Aspartyl dipeptide amide derivatives and sweeteners” (Ajinomoto Co., Inc., priority 1996, dated 1999):
Peptide text beside a SMILES is read from it.

What was measured:
[1] = Sensory evaluation of degree of sweetness relative to sugar; settings: for degrees of sweetness: relative to a degree of sweetness of a 4% aqueous sucrose solution; for degree of sweetness: sensory evaluation
Excerpt: ^3 Degree of sweetness relative to a degree of sweetness of a 4%

[2] = Stability (half-life) in phosphate buffer of pH 3 at 70° C.; format: physicochemical; settings: acidic aqueous solution
Protocol: The peptides of the present invention may be 2 to 15 times as stable as aspartame when measured in a phosphate buffer of pH 3 at 70° C. This range in stability as compared to aspartame includes all specific values and subranges therebetween. The half-lives (in a phosphate buffer of pH 3 at 70° C.) of α-L-aspartyl-D-valine (R)-α-methylthiomethylbenzylamide, α-L-aspartyl-D-isoleucine (R)-α-methylthiomethylbenzylamide and α-L-aspartyl-D-valine (S)-α-methoxycarbonylmethylbenzylamide in an acidic aqueous solution were approximately 220 hours, 650 hours and 139 hours respectively.

Structure (SMILES)	degrees of sweetness [1]	Degree of sweetness (relative to sugar) [1]	degree of sweetness [1]	half-life [2]
COC(=O)CC(NC(=O)[C@H](NC(=O)[C@@H](N)CC(=O)O)C(C)C)C1CCCCC1 (mixture of isomers) [Example 6, α-L-aspartyl-D-valine (RS)-α-cyclohexyl-β-methoxycarbonylethylamide]	400	400 times		
CC[C@@H](NC(=O)[C@@H](N)CC(=O)O)C(=O)NC(CC(=O)OC)c1ccccc1 (mixture of isomers) [Example 10, α-L-aspartyl-D-α-aminobutyric acid (RS)-α-methoxycarbonylmethylbenzylamide]	800	800 times		
CC[C@@H](NC(=O)[C@@H](N)CC(=O)O)C(=O)NC(CC(=O)OC)c1ccc(OC)cc1 (mixture of isomers) [Example 11]	200	200 times		
CC[C@@H](NC(=O)[C@@H](N)CC(=O)O)C(=O)NC(CC(=O)OC)c1cccc2c1OCO2 (mixture of isomers) [Example 12]	250	250 times		
CC[C@@H](NC(=O)[C@@H](N)CC(=O)O)C(=O)NC(CC(=O)OC)c1ccc(O)cc1 (mixture of isomers) [Example 13]	200	200 times		
CC[C@@H](NC(=O)[C@@H](N)CC(=O)O)C(=O)NC(CC(=O)OC)c1ccc(C)cc1 (mixture of isomers) [Example 14]	200	200 times		
CC[C@@H](NC(=O)[C@@H](N)CC(=O)O)C(=O)NC(CC(=O)OC)C1CCCCC1 (mixture of isomers) [Example 15, α-L-aspartyl-D-α-aminobutyric acid (RS)-α-cyclohexyl-β-methoxycarbonylethylamide]	700	700 times		
CC[C@@H](NC(=O)[C@H](CC(=O)O)NCCC(C)(C)C)C(=O)NC(CC(=O)OC)c1ccccc1 (mixture of isomers) [Example 18, N-3,3-dimethylbutyl-α-L-aspartyl-D-α-aminobutyric acid (RS)-α-methoxycarbonylmethylbenzylamide]	1250	1,250 times		
COC(=O)CC(NC(=O)[C@H](NC(=O)[C@H](CC(=O)O)NCCC(C)(C)C)C(C)C)c1ccccc1 (mixture of isomers) [Example 19, N-3,3-dimethylbutyl-α-L-aspartyl-D-valine (RS)-α-methoxycarbonylmethylbenzylamide]	1250	1,250 times		
CC[C@@H](NC(=O)[C@H](CC(=O)O)NCCC(C)(C)C)C(=O)NC(CC(=O)OC)C1CCCCC1 (mixture of isomers) [Example 20, N-3,3-dimethylbutyl-α-L-aspartyl-D-α-aminobutyric acid (RS)-α-cyclohexyl-β-methoxycarbonylethylamide]	1250	1,250 times		
CSC[C@H](NC(=O)[C@H](NC(=O)[C@@H](N)CC(=O)O)C(C)C)c1ccccc1 [Example 1, α-L-aspartyl-D-valine (R)-α-methylthiomethylbenzylamide]	3000	3,000 times	approximately 3,000 times that of sugar	approximately 220 hours
CSC[C@H](NC(=O)[C@@H](C)NC(=O)[C@@H](N)CC(=O)O)c1ccccc1 [Example 2, α-L-aspartyl-D-alanine (R)-α-methylthiomethylbenzylamide]	1000	1,000 times		
CC[C@@H](NC(=O)[C@@H](N)CC(=O)O)C(=O)N[C@@H](CSC)c1ccccc1 [Example 3, α-L-aspartyl-D-α-aminobutyric acid (R)-α-methylthiomethylbenzylamide]	4000	4,000 times	approximately 4,000 times that of sugar	
CC[C@@H](C)[C@@H](NC(=O)[C@@H](N)CC(=O)O)C(=O)N[C@@H](CSC)c1ccccc1 [Example 4, α-L-aspartyl-D-isoleucine (R)-α-methylthiomethylbenzylamide]	5000	5,000 times	approximately 5,000 times that of sugar	~27.1 days
COC(=O)C[C@H](NC(=O)[C@H](NC(=O)[C@@H](N)CC(=O)O)C(C)C)c1ccccc1 [Example 5, α-L-aspartyl-D-valine (S)-α-methoxycarbonylmethylbenzylamide]	1500	1,500 times	approximately 1,500 times that of sugar	~5.79 days
CC[C@@H](NC(=O)[C@@H](N)CC(=O)O)C(=O)NC1(c2ccccc2)CCCC1 [Example 7, α-L-aspartyl-D-α-aminobutyric acid α-phenylcyclopentylamide]	750	750 times		
CC(C)[C@@H](NC(=O)[C@@H](N)CC(=O)O)C(=O)NC1(c2ccccc2)CCCC1 [Example 8, α-L-aspartyl-D-valine α-phenylcyclopentylamide]	1200	1,200 times	approximately 1,200 times that of sugar	
CC[C@@H](C)[C@@H](NC(=O)[C@@H](N)CC(=O)O)C(=O)NC(C)(C)c1ccccc1 [Example 9, α-L-aspartyl-D-isoleucine α,α-dimethylbenzylamide]	250	250 times		
CC(C)[C@@H](NC(=O)[C@@H](N)CC(=O)O)C(=O)NC(C)(C)c1ccccc1 [Example 16, α-L-aspartyl-D-valine α,α-dimethylbenzylamide]	500	500 times		
CSC[C@H](NC(=O)[C@H](NC(=O)[C@H](CC(=O)O)NCCC(C)(C)C)C(C)C)c1ccccc1 [Example 17, N-3,3-dimethylbutyl-α-L-aspartyl-D-valine (R)-α-methylthiomethylbenzylamide]	5000	5,000 times	approximately 5,000 times that of sugar	
COC(=O)[C@H](Cc1ccccc1)NC(=O)[C@@H](N)CC(=O)O [aspartame, reference compound] (H-Asp-Phe-OMe)				approximately 23 hours
